{"source": "patent US20250066853A1", "about": "“PHARMACEUTICAL COMPOSITION FOR THE TREATMENT AND/OR PREVENTION OF ANEURYSMS, DIAGNOSTIC SUPPORT METHOD FOR ANEURYSMS, AND METHOD FOR EVALUATING ANEURYSM THERAPEUTICS” (RIKEN, priority 2021, published 2025)", "key": {"[1]": {"tested_on": "mouse model of cerebral aneurysms (PDGFRβ p.559_562del)", "assay": "Mouse cerebral aneurysm model with AAV-introduced PDGFRβ p.559_562del, basilar artery size (Example 2)", "type": "in vivo", "settings": "mice with AAV PDGFRβ p.559_562del, daily i.p. sunitinib 40, axitinib 25, dasatinib 10 mg/kg/day, 28 days post-infection, versus vehicle, sunitinib p<0.05 (Mann-Whitney U)", "text": "A mouse CA (cerebral aneurysm) model was constructed by applying adeno-associated virus (AAV) around the non-branching region of the basilar artery. HEK293T cells were transfected with pHelper vector, pRC vector, and a pAAV vector comprising the target gene. After culturing, AAV was harvested using the iodixanol gradient method. After determining the AAV serotype, it was mixed with a hydrogel of PBS comprising 15% Pluronic F-127. The virus concentrations (vg/mL) in the hydrogels of AAV-CMV-EGFP, AAV-CMV-PDGFRβ, and AAV-CMV-PDGFRβ p559_562del were 2×10^13, 1×10^12, and 1×10^12, respectively.\nMale C57BL/6N mice aged 8-11 weeks (CLEA Japan) were deeply anesthetized with medetomidine (0.3 mg/kg), midazolam (4 mg/kg), and butorphanol (5 mg/kg) administered intraperitoneally (i.p.). The basilar artery was exposed as previously described (Yonekura et al., 2004). Three microliters of hydrogel were applied to the basilar artery and removed after 5 minutes. This application was repeated two more times. The mice were divided into three subgroups (control, PDGFRβ(wt), and PDGFRβ(mutant)). […]\nTo evaluate the effect of the virus, sections were stained with Elastica Van Gieson (EVG) method, selecting the largest artery section from each brain sample for measurement. […] The area and perimeter of the stained sites were calculated using FUJI-ImageJ software (J. Schindelin et al., Nature Methods, 2012)."}, "[2]": {"tested_on": "mouse model of cerebral aneurysms (PDGFRβ p.559_562del)", "assay": "Mouse cerebral aneurysm model with PDGFRβ p.559_562del, low-dose treatment from day 7, maximum diameter of basilar artery (Example 3)", "experimental": "After deep anesthesia with isoflurane, the mice were decapitated, and the cerebral blood vessels were exposed to measure the maximum diameter of the basilar artery. Each drug administration condition was tested on three mice."}, "[3]": {"tested_on": "AHNAK mutation-induced cerebral aneurysm model mice", "assay": "AHNAK mutation-induced (AHNAKmini p.G3819A) cerebral aneurysm model mice, maximum diameter of cerebral blood vessels (Example 5)", "type": "in vivo, mouse", "settings": "day 7 to day 28 post-infection, 20 μL/g/day; PD173074 0.1 mg/mL, LY294002 0.02 mg/mL, staurosporine 0.02 mg/mL; versus non-administered group; PD173074 p<0.05", "from_the_text": "To introduce AHNAK mutations into experimental animals, it is necessary to incorporate the gene into viral vectors or other vehicles. However, AHNAK is a large protein with a length of 5890 amino acids, making it difficult to incorporate its full-length gene into viral vectors. […] AHNAK has many repeat structures (CRU: Consensus Central Repeat Unit), and the mutation sites are also within the CRU. Therefore, we designed a low-molecular-weight version of AHNAK (AHNAKmini) that combines the […] in this order. […] The amino acid sequence of AHNAKmini is shortened to 1943 amino acids with an N-terminal FLAG tag.\nThe DNA encoding the AHNAKmini with the p.G3819A mutation was chemically synthesized and subcloned directly into a pAAV vector to prepare pAAV-CMV-AHNAK (SEQ ID NO: 19). This was further modified to have the mutation corresponding to p.G3819A (specifically, changing the 3156th guanine (g) in SEQ ID NO: 19 to cytosine (c)) to prepare pAAV-CMV-AHNAK p.G3819A. HEK293T cells were transfected with the pHelper vector, pRC vector, and pAAV-CMV-AHNAK p.G3819A, and cultured, after which AAV produced by the iodixanol gradient method was harvested (AAV-CMV-AHNAK p.G3819A). As a control, AAV encoding EGFP (AAV-CMV-EGFP) was similarly prepared. After determining the […] of AAV, it was mixed with a hydrogel of PBS comprising 15% Pluronic F-127.\nMale C57BL/6N mice aged 8-11 weeks (CLEA Japan) were exposed to the middle cerebral artery according to the protocol described in A. Tamura et al., Journal of Cerebral Blood Flow and Metabolism, 1: 53-60 (1981). The hydrogel comprising AAV was applied multiple times at 5-minute intervals. The skull was covered with temporal fascia, the soft tissue was returned to its original position, and the skin was sutured. The total application amounts of AAV-CMV-EGFP and AAV-CMV-AHNAK p.G3819A were 2.4×10^10 vg and 3.3×10^11 vg, respectively. […]\nAfter decapitation, the cerebral blood vessels were exposed, and the maximum diameter of the cerebral blood vessels was measured. […]"}}, "note": "“Also recorded” adds a separate entry of the source.", "data": [{"compound": "Cc1nc(Nc2ncc(C(=O)Nc3c(C)cccc3Cl)s2)cc(N2CCN(CCO)CC2)n1", "note": "[dasatinib]", "values": [{"measurement": "Enlargement (dilation) of basilar artery", "setting": "[1]", "value": "suppressed this arterial dilation"}, {"measurement": "Maximum diameter of basilar artery (cerebral vessel expansion) compared to sunitinib", "setting": "[2]; i.p. daily day 7 to day 28, axitinib 0.76, dasatinib 1.0, sunitinib 0.78 mg/kg/day, three mice each, dasatinib vs sunitinib p=0.040", "value": "significantly suppressed cerebral vessel expansion"}, {"measurement": "Treatment effect on cerebral artery expansion (rank order)", "setting": "[2]; low concentration ranges, administration from day 7 after mutation introduction", "value": "highest for dasatinib; also recorded: high treatment/preventive effects"}]}, {"compound": "CCN(CC)CCCCNc1ncc2cc(-c3cc(OC)cc(OC)c3)c(NC(=O)NC(C)(C)C)nc2n1", "note": "[PD173074]", "values": [{"measurement": "Increase in maximum cerebral vessel diameter", "setting": "[3]", "value": "significant suppression"}]}, {"compound": "CNC(=O)c1ccccc1Sc1ccc2c(/C=C/c3ccccn3)n[nH]c2c1", "note": "[axitinib]", "values": [{"measurement": "Enlargement (dilation) of basilar artery", "setting": "[1]; listed as avitinib", "value": "suppressed this arterial dilation"}]}, {"compound": "O=c1cc(N2CCOCC2)oc2c(-c3ccccc3)cccc12", "note": "[LY294002]", "values": [{"measurement": "Increase in maximum cerebral vessel diameter", "setting": "[3]", "value": "suppressed in all mice"}]}, {"compound": "CN[C@@H]1C[C@H]2O[C@@](C)([C@@H]1OC)n1c3ccccc3c3c4c(c5c6ccccc6n2c5c31)C(=O)NC4", "note": "[staurosporine]", "values": [{"measurement": "Increase in maximum cerebral vessel diameter", "setting": "[3]", "value": "suppressed in all mice"}]}]}
